SMILES strings stand for the structures.

In test [1] the test system is castor oil-induced diarrhea in albino rats. The test is described as follows: Castor oil-induced diarrhea (weight of faeces, rate of defecation). In kind it is in vivo, Swiss albino rats. The conditions noted are these: STD group, 10 mg/kg i.p. How it is done:
The anti-diarrheal activity of the hazardless and stable aqua-regia in terms of reduction of rate of defecation and consistency of faeces was tested on albino rats. In an embodiment, Swiss albino rats weighing 150-180 g of either sex were selected for the experiment. Animals were allowed to acclimatize for a period of 2 weeks in laboratory environment by housing them in a plurality of polypropylene cages. The polypropylene cages were maintained under standard laboratory conditions at an ambient temperature of 25° C. with 35%-60% humidity. Animals were fed with standard rat pellet diet.
Loperamide (standard reference anti-diarrheal drug), castor oil (laxative agent), and normal saline solution (0.9% NaCl) were used. […]
Animals of all the groups were placed separately in individual cages lined with filter paper. The filter paper was changed every 1 hour and the severity of diarrhea was assessed hourly for two hours. The total weight of faeces excreted were recorded within a period of two hours and compared with that of the control group. […]
(§1) Data were analyzed by one-way ANOVA followed by Dunnett's t-test using computerized Graph Pad InStat version 3.05.

For test [2], the system named is intestinal transit of charcoal meal in albino rats. Description: Gastrointestinal motility test (charcoal meal transit). The conditions noted are these: charcoal meal one hour after dosing, sacrificed thirty minutes later; aqua-regia 0.03 ml, atropine sulphate 0.1 mg/kg; control group 84.46%. In kind it is in vivo, Swiss albino rats. On the procedure: The use of the hazardless and stable aqua-regia in rehydrating body cells was tested on albino rats. In an embodiment, Swiss albino rats weighing 150-180 g of either sex were selected for the experiment. Animals were allowed to acclimatize for a period of 2 weeks in laboratory environment by housing them in a plurality of polypropylene cages. The polypropylene cages were maintained under standard laboratory conditions at an ambient temperature of 25° C. with 35%-60% humidity. Animals were fed with standard rat pellet diet.
Atropine sulphate (standard reference anti-diarrheal drug), charcoal meal (10% activated charcoal in 5% gum acacia) and vehicle (2% v/v Tween 80 in distilled water) were used. […]
The gastrointestinal motility test was conducted to illustrate use of aqua-regia in rehydrating body cells, according to an embodiment herein. […] The distance travelled by the charcoal meal was calculated. The distance covered by the charcoal meal in the intestine was expressed as a percentage of the total distance travelled from the pylorus to the caecum of each animal.
as §1

For `CN(C)C(=O)C(CCN1CCC(O)(c2ccc(Cl)cc2)CC1)(c1ccccc1)c1ccccc1` [loperamide, Loperamide], the diarrheal symptoms result in test [1] is given as “does not possess any diarrheal symptoms”.
For the compound `CN1[C@@H]2CC[C@H]1CC(OC(=O)C(CO)c1ccccc1)C2.CN1[C@@H]2CC[C@H]1CC(OC(=O)C(CO)c1ccccc1)C2.O=S(=O)(O)O` (some centres unmarked) [standard drug, Atropine sulphate], in test [2], the “percentage transit (distance covered by charcoal meal as percentage of distance from pylorus to caecum)” value stood at 55.57%.

These data come from US20120128795A1, “COLORLESS, NON-FUMING, HAZARDLESS AND STABLE AQUA-REGIA, ITS PREPARATION METHOD AND USE IN TREATING MEDICAL DISORDERS” (priority 2010, published 2012).
